CC(C(=O)O)c1ccc2c(c1)[nH]c1ccc(Cl)cc12 (stereo not given)
solubility (mole fraction)
Details	in acetic acid	in ethylene glycol	in formic acid	in glycerin	in isobutanol	in isopropanol	in n-butanol	in n-octanol	in n-propanol	in propylene glycol
288.15 K	0.00687	0.00349	0.000435	0.000115	0.00942	0.0145	0.014	0.0143	0.0157	0.0055
293.15 K	0.00706	0.00433	0.000547	0.000147	0.0103	0.0179	0.0174	0.0177	0.0195	0.0069
298.15 K	0.00863	0.00585	0.00074	0.000209	0.0137	0.0267	0.0243	0.0248	0.0315	0.00753
303.15 K	0.00998	0.00715	0.00116	0.000301	0.0177	0.031	0.0283	0.0295	0.0378	0.00936
308.15 K	0.0126	0.00861	0.00146	0.000437	0.0243	0.0359	0.0346	0.035	0.0418	0.0121
313.15 K	0.0174	0.0117	0.00201	0.00052	0.0287	0.0436	0.0389	0.0391	0.0507	0.0153
318.15 K	0.0216	0.0168	0.00287	0.000851	0.0357	0.048	0.0441	0.0448	0.0598	0.0183
323.15 K	0.0268	0.0194	0.00388	0.00133	0.0432	0.0601	0.0526	0.0537	0.0743	0.0223
